The values below are quoted from earlier work in US20200352901A1, “TETRAHYDROCANNABINOL MODULATORS” (priority 2017, published 2020).

Like-named read-outs stand apart in the source and are kept apart here.

For data set [1], the target named is T1, CB1 (Homo sapiens, UniProt P21554). The following applies: read-out: Binding affinity to CB1.
Target sequence in this assay (P21554 whole entry): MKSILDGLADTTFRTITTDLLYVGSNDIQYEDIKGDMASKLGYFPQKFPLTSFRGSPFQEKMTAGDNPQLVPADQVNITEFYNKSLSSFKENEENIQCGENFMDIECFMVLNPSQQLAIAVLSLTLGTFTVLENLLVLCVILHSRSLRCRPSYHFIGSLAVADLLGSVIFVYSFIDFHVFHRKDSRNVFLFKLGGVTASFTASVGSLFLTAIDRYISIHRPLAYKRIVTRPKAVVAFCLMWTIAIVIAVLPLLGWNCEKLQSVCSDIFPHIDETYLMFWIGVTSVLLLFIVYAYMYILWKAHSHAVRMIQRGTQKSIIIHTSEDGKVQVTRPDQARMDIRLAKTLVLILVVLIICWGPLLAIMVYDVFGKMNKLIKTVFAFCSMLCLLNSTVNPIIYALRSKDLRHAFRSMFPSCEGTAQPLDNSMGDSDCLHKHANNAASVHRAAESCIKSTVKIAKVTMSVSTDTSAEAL
Data set [2] deals with T2, human CB2 receptor (Homo sapiens, UniProt P34972). The following applies: cells expressing human CB2 receptor; radioligand binding; read-out: Binding affinity to CB2.
T2 sequence (P34972 whole entry): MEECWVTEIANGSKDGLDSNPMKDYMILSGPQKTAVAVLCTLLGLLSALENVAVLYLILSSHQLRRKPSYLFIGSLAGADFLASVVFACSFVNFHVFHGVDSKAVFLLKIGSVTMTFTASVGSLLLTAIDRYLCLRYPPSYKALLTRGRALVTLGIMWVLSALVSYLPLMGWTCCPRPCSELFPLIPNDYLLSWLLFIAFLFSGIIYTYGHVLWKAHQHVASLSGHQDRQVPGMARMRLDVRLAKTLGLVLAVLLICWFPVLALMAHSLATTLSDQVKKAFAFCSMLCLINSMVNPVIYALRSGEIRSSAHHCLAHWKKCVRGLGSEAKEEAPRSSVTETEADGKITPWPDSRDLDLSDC
In data set [3] the target is CYP2D6 (Homo sapiens, UniProt P10635). The following applies: standard substrate of CYP2D6.
CYP2D6, sequence (P10635 whole entry): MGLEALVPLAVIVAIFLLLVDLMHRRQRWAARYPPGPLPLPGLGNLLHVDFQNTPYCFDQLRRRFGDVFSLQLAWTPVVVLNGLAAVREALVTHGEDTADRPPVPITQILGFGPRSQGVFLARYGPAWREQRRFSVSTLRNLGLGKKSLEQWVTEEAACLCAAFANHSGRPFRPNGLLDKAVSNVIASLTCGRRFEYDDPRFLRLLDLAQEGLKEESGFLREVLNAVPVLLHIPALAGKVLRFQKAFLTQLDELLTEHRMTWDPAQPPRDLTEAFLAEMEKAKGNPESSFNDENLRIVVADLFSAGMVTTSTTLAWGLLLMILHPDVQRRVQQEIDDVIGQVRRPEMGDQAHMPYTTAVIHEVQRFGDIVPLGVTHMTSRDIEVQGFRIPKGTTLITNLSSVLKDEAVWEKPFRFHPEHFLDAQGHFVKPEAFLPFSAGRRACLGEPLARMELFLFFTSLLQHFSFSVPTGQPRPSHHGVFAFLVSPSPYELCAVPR
Data set [4] concerns the target T3, UGT1A9 (Homo sapiens, UniProt O60656).
T3 sequence (O60656 26-530): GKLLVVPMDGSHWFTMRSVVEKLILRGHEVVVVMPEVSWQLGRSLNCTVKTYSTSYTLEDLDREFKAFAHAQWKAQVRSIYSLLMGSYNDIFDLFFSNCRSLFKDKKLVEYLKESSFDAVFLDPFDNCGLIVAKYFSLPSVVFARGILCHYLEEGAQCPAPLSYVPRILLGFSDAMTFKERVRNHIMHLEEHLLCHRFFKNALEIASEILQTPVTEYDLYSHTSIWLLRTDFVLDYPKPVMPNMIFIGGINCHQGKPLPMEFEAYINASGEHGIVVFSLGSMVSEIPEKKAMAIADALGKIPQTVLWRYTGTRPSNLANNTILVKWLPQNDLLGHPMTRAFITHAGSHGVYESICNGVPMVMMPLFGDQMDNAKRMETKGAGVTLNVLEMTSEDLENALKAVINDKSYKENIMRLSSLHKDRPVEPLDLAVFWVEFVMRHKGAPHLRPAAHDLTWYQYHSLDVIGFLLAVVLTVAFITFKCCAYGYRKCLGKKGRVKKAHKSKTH
The following applies: at 200 micromolar carvacrol; test substrate 4-methylumbelliferone.

The target in data set [5] is T2, human CB2 receptor.
For data set [6], the target named is T1, CB1.
Target sequence in this assay (P21554 whole entry): as the sequence (P21554 whole entry) above
Data set [7] deals with T4, CYP2C9 (Homo sapiens, UniProt P11712). Conditions: standard substrate of CYP2C9.
T4 sequence (P11712 whole entry): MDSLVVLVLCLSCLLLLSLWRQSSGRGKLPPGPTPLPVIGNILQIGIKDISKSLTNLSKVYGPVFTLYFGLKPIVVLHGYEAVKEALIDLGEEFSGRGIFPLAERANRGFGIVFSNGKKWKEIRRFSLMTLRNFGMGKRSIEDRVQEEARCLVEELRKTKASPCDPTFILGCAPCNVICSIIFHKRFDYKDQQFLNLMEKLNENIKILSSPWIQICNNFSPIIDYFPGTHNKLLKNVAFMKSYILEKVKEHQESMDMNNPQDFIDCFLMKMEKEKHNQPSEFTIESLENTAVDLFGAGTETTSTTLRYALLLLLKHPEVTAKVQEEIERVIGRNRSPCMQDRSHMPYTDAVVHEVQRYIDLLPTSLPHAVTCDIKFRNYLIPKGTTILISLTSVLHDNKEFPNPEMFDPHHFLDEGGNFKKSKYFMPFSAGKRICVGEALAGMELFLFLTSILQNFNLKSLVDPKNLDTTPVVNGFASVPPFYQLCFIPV
The target in data set [8] is T1, CB1. The source holds these as a separate data set.
Target sequence in this assay (P21554 whole entry, species assumed): as the sequence (P21554 whole entry) above
Data set [9] has as its target T5, UGT1A10 (Homo sapiens, UniProt Q9HAW8).
T5 sequence (Q9HAW8 26-530): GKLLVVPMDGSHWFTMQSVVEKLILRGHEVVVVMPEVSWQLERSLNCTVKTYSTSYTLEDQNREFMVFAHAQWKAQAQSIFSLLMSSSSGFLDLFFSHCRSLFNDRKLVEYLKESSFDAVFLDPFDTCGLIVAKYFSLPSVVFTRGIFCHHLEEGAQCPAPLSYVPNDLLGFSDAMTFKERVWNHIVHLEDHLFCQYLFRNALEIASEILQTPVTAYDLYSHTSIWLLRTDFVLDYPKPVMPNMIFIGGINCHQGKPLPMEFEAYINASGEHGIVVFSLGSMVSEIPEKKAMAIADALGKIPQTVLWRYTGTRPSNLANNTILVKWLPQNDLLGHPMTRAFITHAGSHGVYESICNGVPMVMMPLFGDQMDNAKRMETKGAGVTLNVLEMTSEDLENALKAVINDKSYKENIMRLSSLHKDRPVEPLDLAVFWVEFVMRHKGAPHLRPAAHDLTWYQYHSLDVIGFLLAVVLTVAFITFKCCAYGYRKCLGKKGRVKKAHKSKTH
Conditions: extrahepatic isoform UGT1A10.

Data set [10] deals with T6, CYP3A4 (Homo sapiens, UniProt P08684). Conditions: standard substrate of CYP3A4.
T6 sequence (P08684 whole entry): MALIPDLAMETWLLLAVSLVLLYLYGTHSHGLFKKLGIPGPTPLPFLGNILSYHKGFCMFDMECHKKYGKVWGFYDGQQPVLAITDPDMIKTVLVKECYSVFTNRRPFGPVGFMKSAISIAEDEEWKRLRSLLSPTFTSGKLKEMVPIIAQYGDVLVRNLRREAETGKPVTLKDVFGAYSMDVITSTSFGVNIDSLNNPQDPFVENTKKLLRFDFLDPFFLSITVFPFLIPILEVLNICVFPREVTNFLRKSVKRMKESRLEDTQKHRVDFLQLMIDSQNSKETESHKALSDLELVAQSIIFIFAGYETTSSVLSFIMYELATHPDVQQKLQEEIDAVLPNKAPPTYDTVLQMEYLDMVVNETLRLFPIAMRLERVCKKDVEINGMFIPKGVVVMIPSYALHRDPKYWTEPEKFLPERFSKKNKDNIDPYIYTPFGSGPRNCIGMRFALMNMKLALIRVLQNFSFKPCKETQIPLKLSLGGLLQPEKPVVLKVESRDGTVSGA
Data set [11] addresses T6, CYP3A4. Conditions: read-out: IC(50) for CYP3A4 inhibition.
Data set [12] addresses T7, CYP1A2 (Homo sapiens, UniProt P05177).
T7 sequence (P05177 1-516): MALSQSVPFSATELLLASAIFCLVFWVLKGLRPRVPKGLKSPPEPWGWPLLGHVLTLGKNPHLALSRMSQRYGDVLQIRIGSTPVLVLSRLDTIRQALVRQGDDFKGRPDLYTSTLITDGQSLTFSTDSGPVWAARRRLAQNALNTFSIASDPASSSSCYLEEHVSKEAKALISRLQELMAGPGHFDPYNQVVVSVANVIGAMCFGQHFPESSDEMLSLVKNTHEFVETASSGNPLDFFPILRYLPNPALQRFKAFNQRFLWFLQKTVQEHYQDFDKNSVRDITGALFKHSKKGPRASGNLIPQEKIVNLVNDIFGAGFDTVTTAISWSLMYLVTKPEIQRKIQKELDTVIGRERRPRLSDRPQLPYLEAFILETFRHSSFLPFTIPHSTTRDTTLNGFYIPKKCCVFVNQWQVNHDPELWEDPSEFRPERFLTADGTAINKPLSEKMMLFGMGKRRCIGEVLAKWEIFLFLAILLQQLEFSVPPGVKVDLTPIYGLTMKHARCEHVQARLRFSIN
Conditions: read-out: IC(50) for CYP1A2 inhibition.

The target of data set [13] is T4, CYP2C9. The following applies: read-out: IC(50) for CYP2C9 inhibition.
The target in data set [14] is T8, CYP2C8 (Homo sapiens, UniProt P10632).
T8 sequence (P10632 1-490): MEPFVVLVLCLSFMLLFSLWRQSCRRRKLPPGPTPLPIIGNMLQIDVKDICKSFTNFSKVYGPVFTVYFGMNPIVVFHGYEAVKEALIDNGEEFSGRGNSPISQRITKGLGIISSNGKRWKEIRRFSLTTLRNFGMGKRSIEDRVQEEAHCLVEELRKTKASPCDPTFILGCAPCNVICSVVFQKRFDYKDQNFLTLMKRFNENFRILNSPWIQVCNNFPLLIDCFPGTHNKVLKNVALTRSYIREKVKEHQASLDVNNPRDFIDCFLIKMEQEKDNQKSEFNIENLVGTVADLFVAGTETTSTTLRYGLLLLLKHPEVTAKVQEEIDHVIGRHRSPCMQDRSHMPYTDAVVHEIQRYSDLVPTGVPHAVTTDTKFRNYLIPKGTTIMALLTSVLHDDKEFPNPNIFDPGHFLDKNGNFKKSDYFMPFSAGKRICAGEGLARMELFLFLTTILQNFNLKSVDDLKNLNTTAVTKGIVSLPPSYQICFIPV
Conditions: standard substrate of CYP2C8.

Data set [15] deals with CYP2A6 (Homo sapiens, UniProt P11509). The following applies: standard substrate of CYP2A6.
CYP2A6, sequence (P11509 whole entry): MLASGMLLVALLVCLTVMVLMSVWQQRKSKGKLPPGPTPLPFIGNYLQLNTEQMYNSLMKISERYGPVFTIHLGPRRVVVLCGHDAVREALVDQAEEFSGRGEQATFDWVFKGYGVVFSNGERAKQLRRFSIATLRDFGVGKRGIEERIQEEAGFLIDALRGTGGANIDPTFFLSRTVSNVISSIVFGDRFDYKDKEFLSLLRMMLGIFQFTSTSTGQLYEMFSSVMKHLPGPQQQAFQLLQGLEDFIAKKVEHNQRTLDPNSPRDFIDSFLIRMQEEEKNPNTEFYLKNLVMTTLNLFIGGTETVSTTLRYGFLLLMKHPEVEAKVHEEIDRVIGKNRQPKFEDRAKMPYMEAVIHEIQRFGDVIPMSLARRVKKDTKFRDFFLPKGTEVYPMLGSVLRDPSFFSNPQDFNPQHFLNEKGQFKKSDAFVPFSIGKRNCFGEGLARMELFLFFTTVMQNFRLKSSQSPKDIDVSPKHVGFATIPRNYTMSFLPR
Data set [16] has as its target CYP2B6 (Homo sapiens, UniProt P20813). Conditions: standard substrate of CYP2B6.

CYP2B6, sequence (P20813 whole entry): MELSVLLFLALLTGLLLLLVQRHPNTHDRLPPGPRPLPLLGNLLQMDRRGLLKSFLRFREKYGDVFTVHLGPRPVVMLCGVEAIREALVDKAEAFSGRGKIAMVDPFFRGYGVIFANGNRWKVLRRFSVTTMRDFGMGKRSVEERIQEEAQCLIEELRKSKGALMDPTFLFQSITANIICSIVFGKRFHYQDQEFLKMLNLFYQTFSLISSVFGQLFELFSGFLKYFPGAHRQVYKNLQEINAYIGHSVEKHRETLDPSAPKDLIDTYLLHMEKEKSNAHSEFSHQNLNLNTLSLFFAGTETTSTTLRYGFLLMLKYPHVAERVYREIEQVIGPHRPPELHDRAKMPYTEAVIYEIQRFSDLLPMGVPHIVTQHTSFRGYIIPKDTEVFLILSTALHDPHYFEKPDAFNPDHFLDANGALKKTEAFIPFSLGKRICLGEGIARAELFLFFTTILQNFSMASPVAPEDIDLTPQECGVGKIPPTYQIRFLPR

With `CCCCCc1cc(O)c2c(c1)OC(C)(C)C1CC(O)C(C)=CC21` (single isomer, unassigned) [Compound 1, 8-alpha-hydroxy-delta-9-THC], the results for the Ki in data set [1] and in data set [2] were 1910 nM and 3220 nM, respectively.

Take `COc1ccc2c(c1)[C@]13CCCC[C@@H]1[C@H](C2)N(C)CC3` [dextromorphone]: the Km in data set [3] was 5 µM.

`C=C1CCC2C(c3c(O)cc(CCCCC)cc3OC2(C)C)C1O` (single isomer, unassigned) [Compound 5, 10-alpha-hydroxy-delta-9,11-hexahydro-cannabinol]: the Ki was 117 nM in data set [1] and 129 nM in data set [2].

On to `Cc1ccc(C(C)C)cc1O` [carvacrol], for which the “4-methylumbelliferone glucuronidation activity remaining” value in data set [4] is given as 20 % maximal activity.

Turning to `CCCCCc1cc(O)c2c(c1)OC(C)(C)C1CC=C(C)C(O)C21` (stereo not drawn) [Compound 3, 10-alpha-hydroxy-delta-8-THC], the “Functional character at CB2” value in [5] is “partial agonist”. Further, the Ki in data set [1] is 31 nM; in data set [2], 30 nM. For the same molecule, the “Functional character at CB1” value in [6] is recorded as “partial agonist”.

Turning to `CCCCCc1cc(O)c2c(c1)OC(C)(C)C1CC(O)C(C)=CC21` (single isomer, unassigned) [Compound 2, 8-beta-hydroxy-delta-9-THC], the Ki is 65 nM in [1] and 88 nM in data set [2].

For the molecule `O=C(O)Cc1ccccc1Nc1c(Cl)cccc1Cl` [diclofenac], in [7], the Michaelis-Menten constant (Km) is 3.5 µM.

Consider `CCCCCc1cc(O)c2c(c1)OC(C)(C)[C@@H]1CCC(CO)=C[C@@H]21` [Compound 11-OH-THC, 11-hydroxy-delta-9-tetrahydrocannabinol], for which the “Functional character at CB1” value in [8] was “agonists”. The Michaelis-Menten constant (Km) in [9] was 16 µM.

As to `Cc1ncc2n1-c1ccc(Cl)cc1C(c1ccccc1F)=NC2` [midazolam], the Km in data set [10] is 1.8 µM.

As to `COc1cc(/C=C/C(O)=C/C(=O)/C=C/c2ccc(O)cc2)ccc1O` [Compound 12, demethoxycurcumin], the results for the IC50 in [11], in data set [12] and in data set [13] were 7000 ± 1700 nM, 34000 ± 14200 nM and 1400 ± 200 nM, respectively.

Regarding `C[C@]12CC[C@H]3[C@@H](CCC4=CC(=O)CC[C@@]43C)[C@@H]1CC[C@@H]2O` [testosterone], the Km in data set [10] is 64 µM.

Consider `CCN(CC)Cc1cc(Nc2ccnc3cc(Cl)ccc23)ccc1O` [amodiaquine], for which the Km in data set [14] was 0.9 µM.

As for `O=c1ccc2ccccc2o1` [coumarin], in data set [15], the Michaelis constant (Km) was 1 µM.

For the molecule `COc1cc(/C=C/C(=O)CC(=O)/C=C/c2ccc(O)c(OC)c2)ccc1O` [Compound 11, curcumin], in data set [12], the IC50 was over 100000 nM.

`CCCCCc1cc(O)c2c(c1)OC(C)(C)c1ccc(C)cc1-2` [CBN, cannabinol]: the Michaelis constant (Km) in data set [9] was 55 µM.

For `CC(NC(C)(C)C)C(=O)c1cccc(Cl)c1` (stereo not shown) [bupropion], the Km in [16] was 137 µM.

For `CC(C)=C1C[C@@H]2O[C@@]2(C)CC/C=C(\C)CC1=O` [Compound 7, (4S,5S)-(−)-germacrone-4,5-epoxide], the IC50 in [11] was 1000 ± 200 nM; in data set [12], 33200 ± 3600 nM; in [13], 7600 ± 2500 nM.

For the molecule `CCCCCc1cc(O)c2c(c1)OC(C)(C)[C@@H]1CC=C(CO)C[C@@H]21` [11-hydroxy-delta-8-THC], the “Functional character at CB1” value in data set [8] is given as “agonists”.

For the molecule `C=C1CCC2C(c3c(O)cc(CCCCC)cc3OC2(C)C)C1O` (single isomer, unassigned) [Compound 4, 10-beta-hydroxy-delta-9,11-hexahydro-cannabinol], the Ki is 830 nM in data set [1] and 3270 nM in data set [2].

As a reminder, the Km is the concentration of substrate that gives half-maximal velocity.
